{
  "source": "patent US20260070927A1",
  "about": "“INDAZOLE MACROCYCLES FOR THE TREATMENT OF AUTOIMMUNE DISEASE” (Hoffmann-La Roche Inc., priority 2022, published 2026)",
  "key": {"STING (IFN-β in hPBMC)": {"system": "STING (IFN-β in hPBMC)", "assay": "hPBMC cytokine functional assay (IFN-β decrease after Baculovirus stimulation)", "format": "cell-based", "conditions": "Homo sapiens, Baculovirus MOI 40, 24 hours, read-out: hPBMC_IC50", "experimental": "The inhibition of STING by compounds could be measured by the decrease of IFN-β in hPBMC, which is stimulated by a double stranded DNA virus Baculoviurs (Purchased from Genescript, pCMV-Dest Vector virus generation P2 BV stock virus, Sf-900 II medium with 5% FBS, Lot C9835DK230-2/P4DL001). Frozen hPBMC cells (purchased from Stemcell Technologies, cat number is 70025, Lot 191070803C) were thawed at 37° C. water bath, then cells were re-suspended in 50 ml tube using 20 ml Cell culture medium, and then centrifuged for 5 min at 2000 rpm before the supernatant was removed carefully. The cells were re-suspended in culture medium (RPMI-1640 with 1.5 g/L NaHCO3, 4.5 g/L glucose, 10 mM HEPES and 1 mM Na-pyruvate, 10% HI-FBS); 65 μL of the cell suspension was dispensed into 384 well plate (70K cells/well) by Multidrop Combi with at least 3 hours incubation at 37° C., 5% CO2 cell incubator.\nThen 4 μL of compound solution per well (final 0.5% DMSO) was transferred by Agilent Bravo followed by infection with 11 μL of Baculovirus at a final MOI of 40. The level of IFN-β secreted in the supernatant of hPBMC was determined after 24 hours of incubation at 37° C. cell incubator by human IFN-β HTRF assay (Cisbio, cat: 62HIFNBPEH) following the manufacture's instruction. CellTiter-Glo kit (Promega, cat: G7573) was applied for the cell viability evaluation using Envision."}, "[1]": {"molecular_target": "human stimulator of interferon genes (STING) (139-379) (Homo sapiens (Human), UniProt Q86WV6)", "sequence (Q86WV6 139-379)": "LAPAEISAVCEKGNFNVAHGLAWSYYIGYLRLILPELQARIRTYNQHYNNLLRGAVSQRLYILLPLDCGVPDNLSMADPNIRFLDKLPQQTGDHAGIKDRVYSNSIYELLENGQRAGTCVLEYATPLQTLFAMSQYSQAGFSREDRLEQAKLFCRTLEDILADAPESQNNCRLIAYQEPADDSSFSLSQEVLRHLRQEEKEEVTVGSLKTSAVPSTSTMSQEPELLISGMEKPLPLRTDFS", "assay": "Microliter plate-based TR-FRET competition-binding assay for binders of STING", "conditions": "Alexa488 probe, read-out: FRET_IC50", "experimental": "This is the competition-binding assay to test the compounds' potency to the C-terminal Domain (CTD) and ligand-binding domain of human stimulator of interferon genes (STING). STING (139-379, Q86WV6, http://www.uniprot.org/uniprot) recombinant protein (in 20 mM Tris, 150 mM NaCl, pH 8.0, and expression in Escherichia coli (E. coli) BL21 (DE3)) with a C-terminal flag-tag was employed for the assay. When Alexa-488 labeled active site probe (refer to patent WO2017/175156 A1) bounds to STING (139-379), it accepts the 485 nm emission from Tb-M2-Flag-STING and results in an increase in fluorescence at 520 nm. Compounds that compete for the probe-binding site will reduce 520 nm signal. The assay was run in proxiplate-384 plus (PerkinElmer, cat: 60150300) containing of 2.5 nM STING, 2.5 nM M2-Tb (Cisbio, 61FG2TLA, Lot: 17 A) and 250 nM Alexa488 probe. Plates were centrifuged for 1 min at 1000 rpm, incubated for 30 min at room temperature, and then measured the dual fluorescence emission at 520 nm/485 nM following 320 nm laser excitation on an Envision plate reader (Perkin-Elmer). The compounds' effect on the STING binding is detected by measuring ratiometric fluorescence from time-resolved FRET. The percentage of inhibition of at each compound concentration is calculated on the basis of their changes of TR-FRET efficiency relative to the change of TR-FRET caused by positive control 2′3′cGAMP (Sigma, cat: SML1229)."}, "[2]": {"assay": "Metabolic (liver microsomal) stability assay", "conditions": "human liver microsomes, 1 μM test compound", "method": "The liver microsomal stability assay is used for early assessment of metabolic stability of a test compound in liver microsomes.\nLiver microsomes were preincubated with test compound for 10 minutes at 37° C. in 100 mM potassium phosphate buffer, pH 7.4. The reactions were initiated by adding NADPH regenerating system. The final incubation mixtures contained 1 μM test compound, 0.5 mg/mL liver microsomal protein, 1 mM MgCl2, 1 mM NADP, 1 unit/mL isocitric dehydrogenase and 6 mM isocitric acid in 100 mM potassium phosphate buffer, pH 7.4. After incubation times of 0, 3, 6, 9, 15 and 30 minutes at 37° C., 300 μL of cold acetonitrile (including internal standard) was added to 100 μL incubation mixture to terminate the reaction. Following precipitation and centrifugation, the amount of compound remaining in the samples were determined by LC-MS/MS. Controls of no NADPH regenerating system at zero and 30 minutes were also prepared and analyzed."}},
  "data": [
    {"smiles": "COc1cc(F)ccc1-n1ncc2c(N3C[C@@H]4C[C@H]3C(=O)N(C)CCCc3c5c(cc(F)cc5nn3C)-c3ccnc(n3)O4)ncnc21", "note": "[Example 12, (8S,11S)-22-fluoro-10-[1-(4-fluoro-2-methoxy-phenyl)pyrazolo[3,4-d]pyrimidin-4-yl]-13,18-dimethyl-7-oxa-5,10,13,18,19,26-hexazapentacyclo[15.6.1.1^2,6.1^8,11.0^20,24]hexacosa-1(23),2(26),3,5,17(24),19,21-heptaen-12-one]", "values": [
      {"measurement": "IC50", "setting": "STING (IFN-β in hPBMC)", "value": 1410, "unit": "nM"},
      {"measurement": "IC50", "setting": "[1]", "value": 18, "unit": "nM"},
      {"measurement": "Clearance of human microsome", "setting": "[2]", "value": 13.2, "unit": "mL/min/kg"}
    ]},
    {"smiles": "Cn1cnc(CN2CCCc3c4c(cccc4nn3C)-c3cccc(c3)O[C@H]3C[C@@H](C2=O)N(c2ncnc4c2cnn4-c2ccc(F)cc2F)C3)n1", "note": "[Example 16, (8S,11S)-10-[1-(2,4-difluorophenyl)pyrazolo[3,4-d]pyrimidin-4-yl]-18-methyl-13-[(1-methyl-1,2,4-triazol-3-yl)methyl]-7-oxa-10,13,18,19 tetrazapentacyclo[15.6.1.1^2,6.1^8,11.0^20,24]hexacosa-1(23),2(26),3,5,17(24),19,21-heptaen-12-one]", "values": [
      {"measurement": "IC50", "setting": "STING (IFN-β in hPBMC)", "value": 384, "unit": "nM"},
      {"measurement": "IC50", "setting": "[1]", "value": 3.1, "unit": "nM"},
      {"measurement": "Clearance of human microsome", "setting": "[2]", "value": 15.9, "unit": "mL/min/kg"}
    ]},
    {"smiles": "Cn1nc2cccc3c2c1CCCN(CC1CC1)C(=O)[C@@H]1C[C@@H](CN1c1ncnc2c1cnn2-c1ccc(F)cc1F)Oc1cc-3ncn1", "note": "[Example 18, (8S,11S)-13-(cyclopropylmethyl)-10-[1-(2,4-difluorophenyl)pyrazolo[3,4-d]pyrimidin-4-yl]-18-methyl-7-oxa-3,5,10,13,18,19-hexazapentacyclo[15.6.1.1^2,6.1^8,11.0^20,24]hexacosa-1(23),2(26),3,5,17(24),19,21-heptaen-12-one]", "values": [
      {"measurement": "IC50", "setting": "STING (IFN-β in hPBMC)", "value": 491, "unit": "nM"},
      {"measurement": "IC50", "setting": "[1]", "value": 12.5, "unit": "nM"},
      {"measurement": "Clearance of human microsome", "setting": "[2]", "value": 12.4, "unit": "mL/min/kg"}
    ]},
    {"smiles": "Cn1nc2cccc3c2c1CCCN(CC1CC1)C(=O)[C@@H]1C[C@@H](CN1c1ncnc2c1cnn2-c1ccc(F)cc1F)Oc1nccc-3n1", "note": "[Example 19, (8S,11S)-13-(cyclopropylmethyl)-10-[1-(2,4-difluorophenyl)pyrazolo[3,4-d]pyrimidin-4-yl]-18-methyl-7-oxa-5,10,13,18,19,26-hexazapentacyclo[15.6.1.1^2,6.1^8,11.0^20,24]hexacosa-1(23),2(26),3,5,17(24),19,21-heptaen-12-one]", "values": [
      {"measurement": "IC50", "setting": "STING (IFN-β in hPBMC)", "value": 976, "unit": "nM"},
      {"measurement": "IC50", "setting": "[1]", "value": 13.1, "unit": "nM"},
      {"measurement": "Clearance of human microsome", "setting": "[2]", "value": 10.0, "unit": "mL/min/kg"}
    ]},
    {"smiles": "Cn1nc2cccc3c2c1CCCN(CCO)C(=O)[C@@H]1C[C@@H](CN1c1ncnc2c1cnn2-c1ccc(F)cc1F)Oc1cccc-3c1", "note": "[Example 22, (8S,11S)-10-[1-(2,4-difluorophenyl)pyrazolo[3,4-d]pyrimidin-4-yl]-13-(2-hydroxyethyl)-18-methyl-7-oxa-10,13,18,19-tetrazapentacyclo[15.6.1.1^2,6.1^8,11.0^20,24]hexacosa-1(23),2(26),3,5,17(24),19,21-heptaen-12-one]", "values": [
      {"measurement": "IC50", "setting": "STING (IFN-β in hPBMC)", "value": 264, "unit": "nM"},
      {"measurement": "IC50", "setting": "[1]", "value": 0.2, "unit": "nM"},
      {"measurement": "Clearance of human microsome", "setting": "[2]", "value": 15.5, "unit": "mL/min/kg"}
    ]},
    {"smiles": "CN(C)CCN1CCCc2c3c(cccc3nn2C)-c2cccc(c2)O[C@H]2C[C@@H](C1=O)N(c1ncnc3c1cnn3-c1ccc(F)cc1F)C2", "note": "[Example 24, (8S,11S)-10-[1-(2,4-difluorophenyl)pyrazolo[3,4-d]pyrimidin-4-yl]-13-[2-(dimethylamino)ethyl]-18-methyl-7-oxa-10,13,18,19-tetrazapentacyclo[15.6.1.1^2,6.1^8,11.0^20,24]hexacosa-1(23),2(26),3,5,17(24),19,21-heptaen-12-one]", "values": [
      {"measurement": "IC50", "setting": "STING (IFN-β in hPBMC)", "value": 711, "unit": "nM"},
      {"measurement": "IC50", "setting": "[1]", "value": 8.2, "unit": "nM"},
      {"measurement": "Clearance of human microsome", "setting": "[2]", "value": 14.9, "unit": "mL/min/kg"}
    ]}
  ]
}
